From patent US5242935A, “Method for treatment of neurodegenerative diseases” (R. J. Reynolds Tobacco Company, priority 1992, dated 1993)

Legend:
[1] = target: high affinity nicotinic receptors; assay: Inhibition of L-[3H]nicotine binding to mouse brain membrane preparations; set-up: species or system mouse (DBA strain); details: mouse brain membranes, 2 hr at 4° C., Ki calculated from IC50 by Cheng method
Method: Mice (DBA strain) were maintained on a 12 hour light/dark cycle and were allowed free access to water and food supplied by Wayne Lab Blox, Madison, WI. Animals used in the present studies were 60 to 90 days of age and weighed 20 to 25 g. Brain membrane preparations were obtained from pooled brain tissue of both males and females.
Mice were killed by cervical dislocation. Brains were removed and placed on an ice-cold platform. The cerebellum was removed and the remaining tissue was placed in 10 volumes (weight:volume) of ice-cold buffer (Krebs-RingersHEPES:NaCl, 118 mM; KCl, 4.8 mM; CaCl2, 2.5 mM; MgSO4, 1.2 mM; HEPES, 20 mM; pH to 7.5 with NaOH) and homogenized with a glass-Teflon tissue grinder. The resulting homogenate was centrifuged at 18000×g for 20 min. and the resulting pellet was resuspended in 20 volumes of water. After 60 min. incubation at 4.C, a new pellet was collected by centrifugation at 18000×g for 20 min. After resuspension in 10 volumes of buffer, a new final pellet was again collected by centrifugation at 18000×g for 20 min. Prior to each centrifugation step, the suspension was incubated at 37° C. for 5 min. to promote hydrolysis of endogenous acetylcholine. The final pellet was overlayered with buffer and stored at -70° C. On the day of the assay, that pellet was thawed, resuspended in buffer and centrifuged at 18000×g for 20 min. The resulting pellet obtained was resuspended in buffer to a final concentration of approximately 5 mg protein/ml. Protein was determined by the method of Lowry, et al., J. Biol. Chem., Vol. 193, pp. 265-275 (1951), using bovine serum albumin as the standard.
The binding of L-[^3 H]nicotine was measured using a modification of the method of Romano, et al., Science, Vol. 210, pp. 647-650 (1980) as described previously by Marks, et al., Mol. Pharmacol., Vol. 30, pp. 427-436 (1986). The binding of L-[^3 H]nicotine was measured using a 2 hr. incubation at 4° C. Incubations contained about 500 μg of protein and were conducted in 12 mm×75 mm polypropylene test tubes in a final incubation volume of 250 μl. The incubation buffer was Krebs-Ringers HEPES containing 200 mM TRIS buffer, pH 7.5. The binding reaction was terminated by filtration of the protein containing bound ligand onto glass fiber filters (Micro Filtration Systems) that had been soaked in buffer containing 0.5 percent polyethyleneimine. Filtration vacuum was -50 to -100 torr. Each filter was washed five times with 3 ml of ice-cold buffer. The filtration apparatus was cooled to 2° C. before use and was kept cold through the filtration process. Nonspecific binding was determined by inclusion of 10 μM nonradioactive nicotine in the incubations. The inhibition of L-[^3 H]nicotine binding by test compounds was determined by including one of eight different concentrations of the test compound in the incubation. Inhibition profiles were measured using 10 nM L-[^3 H]nicotine and IC50 values were estimated as the concentration of compound that inhibited 50 percent of specific L-[^3 H]nicotine binding. Inhibition constants (Ki values) were calculated from the IC50 values using the method of Cheng, et al., Biochem. Pharmacol., Vol. 22, pp. 3099-3108 (1973). […] The L-[^3 H]nicotine used in all experiments was purified chromatographically by the method of Romm, et al., Life Sci., Vol. 46, pp. 935-943 (1990).

[2] = system: synaptosomes from the striatal area of rat brain; assay: [3H]Dopamine release from rat striatal synaptosomes (continuous perfusion); type: cell-based, rat (Sprague-Dawley); details: 0.2 ml of a 20 μM solution of ligand, relative to equal concentration of S(-) nicotine, read-out: Dopamine Release (percent release relative to S(-) nicotine)
Method: Dopamine release was measured by preparing synaptosomes from the striatal area of rat brain obtained from Sprague-Dawley rats generally according to the procedures set forth by Nagy, et al., J. Neurochem., Vol. 43, pp. 1114-1123 (1984). Striata from 4 rats were homogenized in 2 ml of 0.32M sucrose buffered with 5 mM HEPES (pH 7.5), using a glass-teflon tissue grinder. The homogenate was diluted to 5 ml with additional homogenization solution and centrifuged at 1000×g for 10 min. This procedure was repeated on the new pellet
the resulting supernatant was centrifuged at 12,000×g for 20 min. A 3 layer discontinuous Percoll gradient consisting of 16 percent, 10 percent and 7.5 percent Percoll in HEPES-buffered sucrose was made with the final pellet dispersed in the top layer. After centrifugation at 15,000×g for 20 min., the synaptosomes were recovered above the 16 percent layer with a pasteur pipette, diluted with 8 ml of perfusion buffer (128 mM NaCl, 2.4 mM KCl, 3.2 mM CaCl2, 1.2 mM KH2 PO4, 1.2 mM MgSO4, 25 mM HEPES pH 7.4, 10 mM dextrose, 1 mM ascorbate, 0.01 mM pargyline), and centrifuged at 15,000×g for 20 min. The new pellet was collected and re-suspended in perfusion buffer. The synaptosome suspension was incubated for 10 min. at 37° C. Then [^3 H]dopamine (Amersham, 40-60 Ci/mmol) was added to the suspension to give a final concentration of 0.1 μM in suspension, and the suspension was incubated for another 5 min. Using this method, 30 to 90 percent of the dopamine was taken up into the synaptosomes, as determined by scintillation counting following filtration through glass fiber filters soaked with 0.5 percent polyethyleneimine. A continuous perfusion system was used to monitor release following exposure to each ligand (i.e., 5-fluoronicotine, 5-bromonicotine, 4^1 -methylnicotine, 5'-methylnicotine, and 5-methylnicotine). Synaptosomes were loaded onto glass fiber filters (Gelman type A/E). Perfusion buffer was dripped onto the filters (0.2-0.3 ml/min.) and pulled through the filters with a peristaltic pump. Synaptosomes were washed with perfusion buffer for a minimum of 20 min. before addition of the ligand. After the addition of a 0.2 ml of a 20 μM solution of ligand, the perfusate was collected into scintillation vials at 1 min. intervals and the dopamine released was quantified by scintillation counting. Peaks of radioactivity released above background were summed and the average basal release during that time was subtracted from the total. Release was expressed as a percentage of release obtained with an equal concentration of S(-) nicotine.

Compound | Ki [1] | Emax at 20 µM [2]
CC1CC(c2cccnc2)N(C)C1 (racemic) [4^1 -methylnicotine] | 91 ± 7 nM | 40%
CN1CCCC1c1cncc(Br)c1 (racemic) [5-bromonicotine] | 44 ± 12 nM | 65%
CN1CCCC1c1cncc(F)c1 (racemic) [5-fluoronicotine] | 61 ± 16 nM | 110%
Cc1cncc(C2CCCN2C)c1 (racemic) [5-methylnicotine] | 2 ± 0.8 nM | 30%
CC1CCC(c2cccnc2)N1C (racemic) [5^1 -methylnicotine] | 6400 nM | 5%
